Read-outs that look alike come from different tables or passages of the source.

The nature of data set [1]: Cytotoxicity in MT4 cells (MTT). It counts as cell-based. As to conditions: for IC50 at 5 days: human. The procedure: MT4 cells were obtained through the NIH AIDS Reagent Program and cultured in RPMI 1640 (Lonza, Wijchen, the Netherlands) supplemented with 10% heat-inactivated fetal bovine serum (Lonza, the Netherlands) and 2mM L-glutamine (Invitrogen, Gosselies, Belgium). MT-4 cells were incubated with the crude extract of Cassia abbreviatta or the tested compounds alone to assess cytotoxicity, or HIV-1 IIIB alone or a mixture of the tested extract and compounds and HIV-1 IIIB viruses to assess protection against HIV-1 infection. […] Data were normalized to cells without treatment. Values of OD540−OD690 were calculated to determine IC50 values in Prism. The entry inhibitors, enfuvirtide, and AMD3100 (Sigma Aldrich, Liège, Belgium), were used as positive controls.

The test system of data set [2] is HIV-1 IIIB. As to the kind of experiment: microbe, parasite or virus in culture. As to conditions: read-out: IC50 HIV-1 Infection. Here is the method: The crude extract of Cassia abbreviata and all isolated compounds were assessed for their anti-HIV activity in MT4 cells infected by the reference strain HIV-1 IIIB (Figure 3). […] Enfuvirtide and Plerixafor are entry inhibitors for positive controls.
MT4 cells were obtained through the NIH AIDS Reagent Program and cultured in RPMI 1640 (Lonza, Wijchen, the Netherlands) supplemented with 10% heat-inactivated fetal bovine serum (Lonza, the Netherlands) and 2mM L-glutamine (Invitrogen, Gosselies, Belgium). MT-4 cells were incubated with the crude extract of Cassia abbreviatta or the tested compounds alone to assess cytotoxicity, or HIV-1 IIIB alone or a mixture of the tested extract and compounds and HIV-1 IIIB viruses to assess protection against HIV-1 infection. After five days, protection from viral infection and the cytotoxicity were evaluated in parallel using (3-(4,5-dimethylthiazol-2-yl)-2,5-diphenyltetrazolium bromide (MTT, Sigma, Liège, Belgium) by measuring OD540 and OD690 using a POLARstar Omega Plate Reader (BMG Labtech, Ortenberg, Germany). Data were normalized to cells without treatment. Values of OD540−OD690 were calculated to determine IC50 values in Prism. The entry inhibitors, enfuvirtide, and AMD3100 (Sigma Aldrich, Liège, Belgium), were used as positive controls.

The mark [3] stands for this setting: Human immunodeficiency virus 1, IIIB, MT4, 120 h.
The mark [4] stands for this setting: MT4 cells incubated with compound alone, five days, MTT, read-out: IC50 Cytotoxicity.

The IC50 is the concentration at which inhibition is half-maximal. Regarding `c1cc(CN2CCCNCCNCCCNCC2)ccc1CN1CCCNCCNCCCNCC1` [Plerixafor (AMD3100), Plerixafor, reference compound], the IC50 at 5 days in data set [1] was over 1 µM. In data set [2] (setting [3]), the IC50 is 0.075 ± 0.009 µM.

With `CC1(C)CC[C@]2(C(=O)O)CC[C@]3(C)C(=CC[C@@H]4[C@@]5(C)CC[C@H](O)C(C)(C)[C@@H]5CC[C@]43C)[C@@H]2C1` [Oleanolic acid (17), oleanolic acid], the half-inhibitory concentration (IC50) at 5 days in data set [1] (setting [4]) is over 333 µM. The half-maximal inhibitory concentration (IC50) in data set [2] (setting [3]) is 7.95 ± 2.57 µM.

In data set [1], `Oc1cc(O)cc(/C=C/c2ccc(O)c(O)c2)c1` [Piceatannol (22), piceatannol] registered a 50% inhibitory concentration (IC50) at 5 days of over 333 µM. In data set [2] (setting [3]), the half-inhibitory concentration (IC50) was 3.58 ± 0.27 µM.

Turning to `CC12OC(=O)CC1C1Oc3c(c(O)cc(O)c3C3c4ccc(O)cc4OC(c4ccc(O)cc4)C3O)CC1O2` (stereo not drawn) [Cassiabrevone (1), guibourtinidol (4α→8) planchol A], the half-inhibitory concentration (IC50) at 5 days in data set [1] was over 333 µM. Also, the IC50 in data set [2] (setting [3]) worked out at 11.9 ± 2.14 µM.

Compound `CCCCCCCCCCCCCCCC(=O)O` [Palmitic acid (28), Palmitic acid] came in with a concentration for half-maximal inhibition (IC50) at 5 days in data set [1] of over 333 µM. Moreover, the IC50 in data set [2] (setting [3]) stood at 16 ± 3.04 µM.

As to `O=C1c2c(O)cc(O)cc2OC(c2ccc(O)c(O)c2)C1O` (stereo not shown) [Taxifolin (8), taxifolin], the IC50 at 5 days in data set [1] (setting [4]) was over 333 µM. Further, in data set [2] (setting [3]), the half-maximal inhibitory concentration (IC50) is 49 ± 5.02 µM.

Consider Enfuvirtide, for which the IC50 in data set [2] (MT4 cells infected by reference strain HIV-1 IIIB, five days, MTT, mean ± SD, three experiments) was 0.0096 ± 0.001 µM.

As for enfuvirtide, in data set [1] (MT4 cells incubated with compound alone, five days, MTT), the IC50 is over 1 µM.

In data set [1], `Oc1ccc([C@H]2Oc3cc(O)ccc3[C@@H](c3c(O)cc(O)c4c3O[C@H](c3ccc(O)cc3)[C@H](O)C4)[C@@H]2O)cc1` [Guibourtinidol-(4α→8)-epiafzelechin (4), guibourtinidol-(4α→8)-epiafzelechin] had an IC50 at 5 days of over 333 µM. In addition, the IC50 in data set [2] (setting [3]) turned out to be 15.4 ± 9.09 µM.
